Data as given in ChEMBL document CHEMBL1165944, “Synthesis and biological evaluation of a new series of berberine derivatives as dual inhibitors of acetylcholinesterase and butyrylcholinesterase” (Bioorg Med Chem, 2010).

molecular target: Acetylcholinesterase (Electrophorus electricus, UniProt O42275); assay: Inhibition of electric eel AChE by Ellman's assay
Sequence (O42275 whole entry): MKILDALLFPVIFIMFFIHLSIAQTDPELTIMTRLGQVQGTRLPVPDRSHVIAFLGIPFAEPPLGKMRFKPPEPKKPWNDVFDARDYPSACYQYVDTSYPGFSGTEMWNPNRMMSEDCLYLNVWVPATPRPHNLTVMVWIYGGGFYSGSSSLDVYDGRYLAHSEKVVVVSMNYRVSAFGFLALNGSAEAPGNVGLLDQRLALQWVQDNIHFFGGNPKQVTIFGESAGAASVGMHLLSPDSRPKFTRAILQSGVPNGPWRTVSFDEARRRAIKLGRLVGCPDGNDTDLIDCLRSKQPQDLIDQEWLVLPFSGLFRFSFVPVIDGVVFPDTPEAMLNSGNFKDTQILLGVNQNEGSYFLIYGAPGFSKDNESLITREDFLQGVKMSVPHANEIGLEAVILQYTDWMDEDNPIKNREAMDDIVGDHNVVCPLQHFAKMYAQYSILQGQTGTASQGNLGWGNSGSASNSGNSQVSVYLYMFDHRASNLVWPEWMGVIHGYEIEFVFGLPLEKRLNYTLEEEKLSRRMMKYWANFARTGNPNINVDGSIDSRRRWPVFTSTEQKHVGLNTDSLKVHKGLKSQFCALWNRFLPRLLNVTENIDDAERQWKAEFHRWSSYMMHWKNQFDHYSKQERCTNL

`COc1ccc2cc3[n+](cc2c1OCCCOc1c(OC)ccc2cc4[n+](cc12)CCc1cc2c(cc1-4)OCO2)CCc1cc2c(cc1-3)OCO2` and `COc1ccc2cc3[n+](cc2c1OCCCCOc1c(OC)ccc2cc4[n+](cc12)CCc1cc2c(cc1-4)OCO2)CCc1cc2c(cc1-3)OCO2` are within 1.5-fold of each other in IC50: 226 nM for the first, 176 nM for the second.

First: COc1ccc2cc3[n+](cc2c1OCCOc1c(OC)ccc2cc4[n+](cc12)CCc1cc2c(cc1-4)OCO2)CCc1cc2c(cc1-3)OCO2
Second: COc1ccc(OCCCOc2c(OC)ccc3cc4[n+](cc23)CCc2cc3c(cc2-4)OCO3)cc1
The IC50 of the first is 3.1-fold lower: 320 nM for the first, 1000 nM for the second. The first is the more potent here.

Going from `COc1ccc2cc3[n+](cc2c1OCCCCOc1ccc(Cl)cc1)CCc1cc2c(cc1-3)OCO2` to `COc1ccc2cc3[n+](cc2c1OCCCOc1ccc(Cl)cc1)CCc1cc2c(cc1-3)OCO2`, the IC50 falls from 1500 nM to 715 nM (2.1-fold). The second is the more potent here.

First: COc1ccc2cc3[n+](cc2c1OCCCOc1ccc(Br)cc1)CCc1cc2c(cc1-3)OCO2
Second: COc1ccc2cc3[n+](cc2c1OCCCCOc1ccc(Br)cc1)CCc1cc2c(cc1-3)OCO2
The IC50 of the first is 2.8-fold lower: 265 nM for the first, 743 nM for the second.

Compared with `COc1ccc2cc3[n+](cc2c1OCCCCOc1ccccn1)CCc1cc2c(cc1-3)OCO2`, `COc1ccc2cc3[n+](cc2c1OCCCCOc1ccc2ccccc2c1)CCc1cc2c(cc1-3)OCO2` is 5.6-fold higher in IC50: 340 nM for the first, 1900 nM for the second.

`COc1ccc2cc3[n+](cc2c1OCCCN(C)c1ccccc1)CCc1cc2c(cc1-3)OCO2` and `COc1ccc2cc3[n+](cc2c1OCCCNc1ccccc1)CCc1cc2c(cc1-3)OCO2` are within 1.5-fold of each other in IC50: 156 nM for the first, 138 nM for the second.

`COc1ccc2cc3[n+](cc2c1OCCCOc1ccc2ccccc2c1)CCc1cc2c(cc1-3)OCO2` and `COc1ccc2cc3[n+](cc2c1OCCCSc1ccc2ccccc2c1)CCc1cc2c(cc1-3)OCO2` are within 1.5-fold of each other in IC50: 359 nM for the first, 500 nM for the second.

First: COc1ccc2cc3[n+](cc2c1OCCCCSc1ccc2ccccc2c1)CCc1cc2c(cc1-3)OCO2
Second: COc1ccc(OCCCCOc2c(OC)ccc3cc4[n+](cc23)CCc2cc3c(cc2-4)OCO3)cc1
The IC50 of the first is 1.8-fold higher: 1350 nM for the first, 748 nM for the second.

`COc1ccc2cc3[n+](cc2c1OCCCOc1ccc([N+](=O)[O-])cc1)CCc1cc2c(cc1-3)OCO2` and `COc1ccc2cc3[n+](cc2c1OCCCCOc1ccc([N+](=O)[O-])cc1)CCc1cc2c(cc1-3)OCO2` are within 1.5-fold of each other in IC50: 400 nM for the first, 490 nM for the second.

First: COc1ccc2cc3[n+](cc2c1OCCC(=O)Nc1ccccc1)CCc1cc2c(cc1-3)OCO2
Second: COc1ccc2cc3[n+](cc2c1OCCC(=O)Nc1ccc(C)cc1)CCc1cc2c(cc1-3)OCO2
The IC50 of the first is 2.7-fold lower: 535 nM for the first, 1460 nM for the second.

Going from `COc1ccc2cc3[n+](cc2c1OCCC(=O)Nc1ccc([N+](=O)[O-])cc1)CCc1cc2c(cc1-3)OCO2` to `COc1ccc2cc3[n+](cc2c1OCCC(=O)Nc1ccc(Cl)cc1)CCc1cc2c(cc1-3)OCO2`, the IC50 falls from 6500 nM to 3860 nM (1.7-fold).

Compared with `COc1ccc2cc3[n+](cc2c1OCC[n+]1ccccc1)CCc1cc2c(cc1-3)OCO2`, `COc1ccc2cc3[n+](cc2c1OCCC[n+]1ccccc1)CCc1cc2c(cc1-3)OCO2` is 1.8-fold higher in IC50: 196 nM for the first, 359 nM for the second.

First: COc1ccc2cc3[n+](cc2c1OCC[n+]1cccc(C)c1)CCc1cc2c(cc1-3)OCO2
Second: COc1ccc2cc3[n+](cc2c1OCCC[n+]1cccc(C)c1)CCc1cc2c(cc1-3)OCO2
The IC50 of the first is 3.2-fold lower: 48 nM for the first, 152 nM for the second.

Compared with `COc1ccc(NC(=O)CCOc2c(OC)ccc3cc4[n+](cc23)CCc2cc3c(cc2-4)OCO3)cc1`, `COc1ccc2cc3[n+](cc2c1OCCCOc1ccc(C)cc1)CCc1cc2c(cc1-3)OCO2` is 3.2-fold lower in IC50: 2800 nM for the first, 878 nM for the second. The second is the more potent here.

molecular target: Cholinesterase (Equus caballus, UniProt P81908); assay: Inhibition of equine serum BuChE by Ellman's method
Sequence (P81908 whole entry): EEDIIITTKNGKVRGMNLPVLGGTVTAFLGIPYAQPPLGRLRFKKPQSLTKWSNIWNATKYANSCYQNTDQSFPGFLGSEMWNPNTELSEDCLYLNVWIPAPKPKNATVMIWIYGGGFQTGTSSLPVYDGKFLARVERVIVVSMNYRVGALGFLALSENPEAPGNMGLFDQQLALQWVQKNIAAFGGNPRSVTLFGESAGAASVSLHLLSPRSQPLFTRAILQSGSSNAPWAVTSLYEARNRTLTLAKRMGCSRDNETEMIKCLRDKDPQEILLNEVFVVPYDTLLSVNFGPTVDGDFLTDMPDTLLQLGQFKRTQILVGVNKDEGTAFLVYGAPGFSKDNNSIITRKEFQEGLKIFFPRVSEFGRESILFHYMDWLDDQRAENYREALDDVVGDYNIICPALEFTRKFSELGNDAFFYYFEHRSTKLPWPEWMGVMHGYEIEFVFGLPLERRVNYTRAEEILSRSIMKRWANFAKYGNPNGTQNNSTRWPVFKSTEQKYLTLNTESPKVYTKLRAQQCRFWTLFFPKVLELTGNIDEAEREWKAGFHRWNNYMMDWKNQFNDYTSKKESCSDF

In the case of `COc1ccc2cc3[n+](cc2c1OCCC(=O)Nc1ccc([N+](=O)[O-])cc1)CCc1cc2c(cc1-3)OCO2`, the IC50 is reported as 5530 nM.
